Experimental data: PubChem BioAssay AID256 (DTP/NCI, 2004)
Several values for one entry are separate records, joined by “and”; a condition that tells them apart may be missing. Equal values may be shown once. Toxic doses and inconclusive results are not listed.

System: CD2F1 mice, L1210 leukemia ip, survival T/C
Test: NCI In Vivo Anticancer Drug Screen. Data for tumor model L1210 Leukemia (intraperitoneal) in CD2F1 (CDF1) mice
Settings: higher = longer survival
How it was run: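 Mice carrying a transplanted tumor received test compound or vehicle alone. The value is the measurement in the treated group divided by that in the vehicle-treated control group.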

[1] = endpoint: mean survival time, dose: 100.0 mg/kg/injection, schedule: Q01DX001 (ip), vehicle: saline with Tween-80
[2] = endpoint: mean survival time, dose: 100.0 mg/kg/injection, schedule: Q04DX002 (ip), vehicle: saline with Tween-80
[3] = endpoint: mean survival time, dose: 50.0 mg/kg/injection, schedule: Q01DX009 (ip), vehicle: saline with Tween-80
[4] = endpoint: mean survival time, dose: 100.0 mg/kg/injection, schedule: Q01DX009 (ip), vehicle: saline with Tween-80
[5] = endpoint: mean survival time, dose: 200.0 mg/kg/injection, schedule: Q01DX009 (ip), vehicle: saline with Tween-80
[6] = endpoint: mean survival time, dose: 100.0 mg/kg/injection, schedule: Q04DX003 (ip), vehicle: other
[7] = endpoint: mean survival time, dose: 200.0 mg/kg/injection, schedule: Q04DX003 (ip), vehicle: other
[8] = endpoint: mean survival time, dose: 400.0 mg/kg/injection, schedule: Q04DX003 (ip), vehicle: other

In the case of Cn1cnc([N+](=O)[O-])c1Sc1nc(N)nc2nc[nH]c12, the T/C (endpoint: mean survival time, dose: 5.0 mg/kg/injection, schedule: Q03DX003 (ip), vehicle: Klucel (hydroxypropylcellulose) (HPC)) is reported as 153 % of control, the T/C (endpoint: mean survival time, dose: 10.0 mg/kg/injection, schedule: Q01DX007 (ip), vehicle: Klucel (hydroxypropylcellulose) (HPC)) is reported as 122 % of control and the T/C (endpoint: mean survival time, dose: 10.0 mg/kg/injection, schedule: Q03DX003 (ip), vehicle: Klucel (hydroxypropylcellulose) (HPC)) is reported as 160 % of control. The T/C (endpoint: mean survival time, dose: 20.0 mg/kg/injection, schedule: Q01DX007 (ip), vehicle: Klucel (hydroxypropylcellulose) (HPC)) was 117 % of control and the T/C (endpoint: mean survival time, dose: 20.0 mg/kg/injection, schedule: Q03DX003 (ip), vehicle: Klucel (hydroxypropylcellulose) (HPC)) was 154 % of control.
For c1ccc2c(c1)Sc1ccccc1N2CCCNC1=NCCO1, the T/C (endpoint: mean survival time, dose: 25.0 mg/kg/injection, schedule: Q04DX002 (ip), vehicle: saline with Tween-80) was 97 % of control, the T/C (endpoint: mean survival time, dose: 50.0 mg/kg/injection, schedule: Q04DX002 (ip), vehicle: saline with Tween-80) was 94 % of control and the T/C [1] was 89 % of control. For the same molecule, the T/C [2] was 94 % of control.
With CCCCCCCCCCNC(=O)C[n+]1cccc(C(=O)N(C)C)c1 the T/C (endpoint: mean survival time, dose: 12.5 mg/kg/injection, schedule: Q01DX009 (ip), vehicle: saline sonified) was 100 % of control, the T/C (endpoint: mean survival time, dose: 12.5 mg/kg/injection, schedule: Q04DX003 (ip), vehicle: saline) was 95 % of control and the T/C (endpoint: mean survival time, dose: 25.0 mg/kg/injection, schedule: Q01DX009 (ip), vehicle: saline sonified) was 97 % of control. The T/C (endpoint: mean survival time, dose: 25.0 mg/kg/injection, schedule: Q04DX003 (ip), vehicle: saline) was 97 % of control, the T/C (endpoint: mean survival time, dose: 50.0 mg/kg/injection, schedule: Q01DX009 (ip), vehicle: saline sonified) was 102 % of control and the T/C (endpoint: mean survival time, dose: 50.0 mg/kg/injection, schedule: Q04DX003 (ip), vehicle: saline) was 101 % of control.
CCCCCC(C)(C)O was tested, and the T/C (endpoint: mean survival time, dose: 100.0 mg/kg/injection, schedule: Q04DX003 (ip), vehicle: saline sonified) was 94 % of control, the T/C (endpoint: mean survival time, dose: 200.0 mg/kg/injection, schedule: Q04DX003 (ip), vehicle: saline sonified) was 90 % of control and the T/C (endpoint: mean survival time, dose: 400.0 mg/kg/injection, schedule: Q04DX003 (ip), vehicle: saline sonified) was 101 % of control.
In the case of CCCCCCCCC(Sc1n[nH]c(=O)[nH]c1=O)C(=O)OCC (stereo not drawn), the T/C (endpoint: mean survival time, dose: 12.5 mg/kg/injection, schedule: Q01DX005 (ip), vehicle: distilled water + Tween-80) is reported as 101 % of control, the T/C (endpoint: mean survival time, dose: 25.0 mg/kg/injection, schedule: Q01DX005 (ip), vehicle: distilled water + Tween-80) is reported as 95 % of control and the T/C (endpoint: mean survival time, dose: 50.0 mg/kg/injection, schedule: Q01DX005 (ip), vehicle: distilled water + Tween-80) is reported as 95 % of control. For the same molecule, the T/C (endpoint: mean survival time, dose: 100.0 mg/kg/injection, schedule: Q01DX005 (ip), vehicle: distilled water + Tween-80) was 100 % of control and the T/C (endpoint: mean survival time, dose: 200.0 mg/kg/injection, schedule: Q01DX005 (ip), vehicle: distilled water + Tween-80) was 95 % of control.
With OCCN(CCO)N=Nc1c(F)cc(F)cc1F the T/C (endpoint: mean survival time, dose: 25.0 mg/kg/injection, schedule: Q01DX005 (ip), vehicle: other) was 98 % of control, the T/C (endpoint: mean survival time, dose: 25.0 mg/kg/injection, schedule: Q04DX003 (ip), vehicle: water) was 94 % of control and the T/C (endpoint: mean survival time, dose: 50.0 mg/kg/injection, schedule: Q01DX005 (ip), vehicle: other) was 101 % of control. The T/C (endpoint: mean survival time, dose: 50.0 mg/kg/injection, schedule: Q04DX003 (ip), vehicle: water) was 94 % of control, the T/C (endpoint: mean survival time, dose: 100.0 mg/kg/injection, schedule: Q01DX005 (ip), vehicle: other) was 101 % of control and the T/C (endpoint: mean survival time, dose: 100.0 mg/kg/injection, schedule: Q04DX003 (ip), vehicle: water) was 97 % of control. The T/C (endpoint: mean survival time, dose: 200.0 mg/kg/injection, schedule: Q01DX005 (ip), vehicle: other) was 102 % of control, the T/C (endpoint: mean survival time, dose: 200.0 mg/kg/injection, schedule: Q04DX003 (ip), vehicle: water) was 97 % of control and the T/C (endpoint: mean survival time, dose: 400.0 mg/kg/injection, schedule: Q01DX005 (ip), vehicle: other) was 112 % of control. The T/C (endpoint: mean survival time, dose: 400.0 mg/kg/injection, schedule: Q04DX003 (ip), vehicle: water) was 100 % of control.
CC(C)(C)c1cc(Cc2cc(C(C)(C)C)c(O)c(C(C)(C)C)c2)cc(C(C)(C)C)c1O was tested, and the T/C [1] was 91 % of control, the T/C (endpoint: mean survival time, dose: 200.0 mg/kg/injection, schedule: Q01DX001 (ip), vehicle: saline with Tween-80) was 91 % of control and the T/C (endpoint: mean survival time, dose: 400.0 mg/kg/injection, schedule: Q01DX001 (ip), vehicle: saline with Tween-80) was 103 % of control.
With Cc1ccc(S(=O)(=O)N/N=C2\CC3CCC2(C)C3(C)C)cc1 (stereo not drawn) the T/C [3] was 96 % of control, the T/C [4] was 88 % of control and the T/C [5] was 100 % of control.
For COc1ccc2c(c1)C1CCCC(=O)C1N2 (stereo not drawn), the T/C [4] was 97 % of control, the T/C [5] was 91 % of control and the T/C (endpoint: mean survival time, dose: 400.0 mg/kg/injection, schedule: Q01DX009 (ip), vehicle: saline with Tween-80) was 91 % of control.
CC(C)(C)OC(=O)C12CCCC(C(=O)OC(C)(C)C)(OO1)O2 was tested, and the T/C (endpoint: mean survival time, dose: 100.0 mg/kg/injection, schedule: Q01DX001 (ip), vehicle: saline) was 95 % of control, the T/C (endpoint: mean survival time, dose: 200.0 mg/kg/injection, schedule: Q01DX001 (ip), vehicle: saline) was 95 % of control and the T/C (endpoint: mean survival time, dose: 400.0 mg/kg/injection, schedule: Q01DX001 (ip), vehicle: saline) was 101 % of control.
In the case of C=C(C)CSC(=S)NNc1ccccc1, the T/C (endpoint: mean survival time, dose: 25.0 mg/kg/injection, schedule: Q01DX009 (ip), vehicle: acetone) is reported as 93 % of control, the T/C (endpoint: mean survival time, dose: 50.0 mg/kg/injection, schedule: Q01DX009 (ip), vehicle: acetone) is reported as 96 % of control and the T/C (endpoint: mean survival time, dose: 100.0 mg/kg/injection, schedule: Q01DX009 (ip), vehicle: acetone) is reported as 102 % of control.
In the case of CN(C)N1C(=O)c2ccccc2C1=O, the T/C [6] is reported as 96 % of control, the T/C [7] is reported as 104 % of control and the T/C [8] is reported as 98 % of control.
With CC(C)(CO)COS(=O)(=O)c1ccc(Br)cc1 the T/C (endpoint: mean survival time, dose: 12.5 mg/kg/injection, schedule: Q01DX009 (ip), vehicle: saline with Tween-80) was 95 % of control, the T/C (endpoint: mean survival time, dose: 25.0 mg/kg/injection, schedule: Q01DX009 (ip), vehicle: saline with Tween-80) was 95 % of control and the T/C [3] was 95 % of control.
O=C(O)CC(=O)O.[NH-]CC(O)C[N-]CC(O)CN.[Pt+2] (stereo not drawn) was tested, and the T/C (endpoint: median survival time, dose: 10.0 mg/kg/injection, schedule: Q04DX003 (ip), vehicle: distilled water + Tween-80) was 101 % of control, the T/C (endpoint: median survival time, dose: 20.0 mg/kg/injection, schedule: Q04DX003 (ip), vehicle: distilled water + Tween-80) was 101 % of control and the T/C (endpoint: median survival time, dose: 40.0 mg/kg/injection, schedule: Q04DX003 (ip), vehicle: distilled water + Tween-80) was 104 % of control. For the same molecule, the T/C (endpoint: median survival time, dose: 66.5 mg/kg/injection, schedule: Q04DX003 (ip), vehicle: distilled water + Tween-80) was 107 % of control, the T/C (endpoint: median survival time, dose: 80.0 mg/kg/injection, schedule: Q04DX003 (ip), vehicle: distilled water + Tween-80) was 106 % of control and 108 % of control and the T/C (endpoint: median survival time, dose: 133.0 mg/kg/injection, schedule: Q04DX003 (ip), vehicle: distilled water + Tween-80) was 108 % of control. The T/C (endpoint: median survival time, dose: 160.0 mg/kg/injection, schedule: Q04DX003 (ip), vehicle: distilled water + Tween-80) was 119 % of control, the T/C (endpoint: median survival time, dose: 266.0 mg/kg/injection, schedule: Q04DX003 (ip), vehicle: distilled water + Tween-80) was 117 % of control and the T/C (endpoint: median survival time, dose: 320.0 mg/kg/injection, schedule: Q04DX003 (ip), vehicle: distilled water + Tween-80) was 117 % of control.
CC(C)CCCC(C)CO[P+](=O)OCC(C)CCCC(C)C (stereo not drawn) was tested, and the T/C [2] was 103 % of control, the T/C (endpoint: mean survival time, dose: 200.0 mg/kg/injection, schedule: Q04DX002 (ip), vehicle: saline with Tween-80) was 96 % of control and the T/C (endpoint: mean survival time, dose: 400.0 mg/kg/injection, schedule: Q04DX002 (ip), vehicle: saline with Tween-80) was 88 % of control.
CCC(C)Nc1ccc(N)cc1 (stereo not drawn) was tested, and the T/C (endpoint: mean survival time, dose: 0.09 mg/kg/injection, schedule: Q01DX009 (ip), vehicle: Klucel (hydroxypropylcellulose) (HPC)) was 103 % of control, the T/C (endpoint: mean survival time, dose: 0.18 mg/kg/injection, schedule: Q01DX009 (ip), vehicle: Klucel (hydroxypropylcellulose) (HPC)) was 94 % of control and the T/C (endpoint: mean survival time, dose: 0.37 mg/kg/injection, schedule: Q01DX009 (ip), vehicle: Klucel (hydroxypropylcellulose) (HPC)) was 103 % of control. The T/C (endpoint: mean survival time, dose: 0.75 mg/kg/injection, schedule: Q01DX009 (ip), vehicle: Klucel (hydroxypropylcellulose) (HPC)) was 103 % of control, the T/C (endpoint: mean survival time, dose: 1.5 mg/kg/injection, schedule: Q01DX009 (ip), vehicle: Klucel (hydroxypropylcellulose) (HPC)) was 102 % of control and the T/C (endpoint: mean survival time, dose: 3.0 mg/kg/injection, schedule: Q01DX009 (ip), vehicle: Klucel (hydroxypropylcellulose) (HPC)) was 94 % of control.
With COC(=O)/C(=C1/OC(=O)C(c2ccccc2)=C1O)c1ccccc1 the T/C (endpoint: mean survival time, dose: 25.0 mg/kg/injection, schedule: Q04DX003 (ip), vehicle: saline with Tween-80) was 91 % of control, the T/C (endpoint: mean survival time, dose: 50.0 mg/kg/injection, schedule: Q04DX003 (ip), vehicle: saline with Tween-80) was 100 % of control and the T/C (endpoint: mean survival time, dose: 100.0 mg/kg/injection, schedule: Q04DX003 (ip), vehicle: saline with Tween-80) was 105 % of control.
In the case of Cc1ccc(S(=O)(=O)N=S2CCCC2)cc1, the T/C [6] is reported as 102 % of control, the T/C [7] is reported as 106 % of control and the T/C [8] is reported as 104 % of control.
